Results published in patent publication US6380218B1, “Nicotinamide derivatives” (Pfizer Inc, priority 1997, dated 2002).

Row | Structure (SMILES) | melting point [°C]
1 | CC(NC(=O)c1cccnc1Oc1cncc(Cl)c1)c1ccc(Cl)s1 (centres unmarked) [Example 49, 2-(5-Chloro-pyridin-3-yloxy)-N-[1-(5-chloro-thiophen-2-yl)-ethyl]-nicotinamide] | 110 to 112
2 | Cc1ccc(C(C)NC(=O)c2cccnc2Oc2cncc(Cl)c2)s1 (centres unmarked) [Example 50, 2-(5-Chloro-pyridin-3-yloxy)-N-[1-(5-methyl-thiophen-2-yl)-ethyl]-nicotinamide] | 75 to 77
3 | O=C(NCc1ccc(Cl)s1)c1cccnc1Oc1cncc(Cl)c1 [Example 51, 2-(5-Chloro-pyridin-3-yloxy)-N-(5-chloro-thiophen-2-ylmethyl)-nicotinamide] | 125 to 127
4 | Cc1ccc(CNC(=O)c2cccnc2Oc2cncc(Cl)c2)s1 [Example 52, 2-(5-Chloro-pyridin-3-yloxy)-N-(5-methyl-thiophen-2-ylmethyl)-nicotinamide] | 81 to 83
5 | Cc1ccc(CNC(=O)c2cccnc2Oc2cncc(Cl)c2)o1 [Example 53, 2-(5-Chloro-pyridin-3-yloxy)-N-(5-methyl-furan-2-ylmethyl)-nicotinamide] | 103 to 105
6 | Cc1ccsc1CNC(=O)c1cccnc1Oc1cncc(Cl)c1 [Example 54, 2-(5-Chloro-pyridin-3-yloxy)-N-(3-methyl-thiophen-2-ylmethyl)-nicotinamide] | 115 to 117
7 | O=C(NCc1cc(Cl)cs1)c1cccnc1Oc1cncc(Cl)c1 [Example 55, 2-(5-Chloro-pyridin-3-yloxy)-N-(4-chloro-thiophen-2-ylmethyl)-nicotinamide] | 94 to 96
8 | O=C(NCc1cc2ccccc2s1)c1cccnc1Oc1cncc(Cl)c1 [Example 56, N-Benzo[b]thiophen-2-ylmethyl-2-(5-chloro-pyridin-3-yloxy)-nicotinamide] | 160 to 162
9 | O=C(NCc1ccc(Cl)o1)c1cccnc1Oc1cncc(Cl)c1 [Example 57, N-(5-Chloro-furan-2-ylmethyl)-2-(5-chloro-pyridin-3-yloxy)-nicotinamide] | 111 to 113
10 | O=C(NCC1CCCCC1)c1cccnc1Oc1cncc(Cl)c1 [Example 58, 2-(5-Chloro-pyridin-3-yloxy)-N-cyclohexylmethyl-nicotinamide] | 95 to 97
11 | CC(C)(O)c1ccc(CNC(=O)c2cccnc2Oc2cncc(Cl)c2)cc1 [Example 59, 2-(5-Chloro-pyridin-3-yloxy)-N-[4-(1-hydroxy-1-methyl-ethyl)-benzyl]-nicotinamide] | 78 to 80
12 | CC(C)(O)c1cc(Cl)c(CNC(=O)c2cccnc2Oc2cncc(Cl)c2)s1 [Example 60, N-[3-Chloro-5-(1-hydroxy-1-methyl-ethyl)-thiophen-2-ylmethyl]-2-(5-chloro-pyridin-3-yloxy)-nicotinamide] | 72 to 74
13 | O=C(NCc1ccc(Cl)s1)c1cccnc1Oc1ccc(F)cc1 [Example 61, N-(5-Chloro-thiophen-2-ylmethyl)-2-(4-fluoro-phenoxy)-nicotinamide] | 91 to 93
14 | O=C(NCc1cc(Cl)cs1)c1cccnc1Oc1ccc(F)cc1 [Example 62, N-(4-Chloro-thiophen-2-ylmethyl)-2-(4-fluoro-phenoxy)-nicotinamide] | 99 to 101
15 | O=C(NCc1ccc(Cl)o1)c1cccnc1Oc1ccc(F)cc1 [Example 63, N-(5-Chloro-furan-2-ylmethyl)-2-(4-fluoro-phenoxy)-nicotinamide] | 116 to 118
16 | O=C(NCc1cc2ccccc2s1)c1cccnc1Oc1ccc(F)cc1 [Example 65, N-Benzo[b]thiophen-2-ylmethyl-2-(4-fluoro-phenoxy)-nicotinamide] | 109 to 111
17 | O=C(NCc1c(F)cc(F)cc1F)c1cccnc1Oc1ccc(F)cc1 [Example 67, 2-(4-Fluoro-phenoxy)-N-(2,4,6-trifluoro-benzyl)-nicotinamide] | 128 to 130
18 | O=C(NCc1scc(Cl)c1Cl)c1cccnc1Oc1ccc(F)cc1 [Example 68, N-(3,4-Dichloro-thiophen-2-ylmethyl)-2-(4-fluoro-phenoxy)-nicotinamide] | 132 to 134
19 | O=C(NCc1sccc1Cl)c1cccnc1Oc1ccc(F)cc1 [Example 69, N-(3-Chloro-thiophen-2-ylmethyl)-2-(4-fluoro-phenoxy)-nicotinamide] | 134 to 136
20 | O=C(NCc1ccccc1Cl)c1cccnc1OCc1ccc(F)cc1 [Example 70, N-(2-Chloro-benzyl)-2-(4-fluoro-benzyloxy)-nicotinamide] | 64 to 66
21 | O=C(NCc1ccc([N+](=O)[O-])cc1)c1cccnc1Oc1ccc(F)cc1 [Example 72, 2-(4-Fluoro-phenoxy)-N-(4-nitro-benzyl)-nicotinamide] | 155 to 157
22 | O=C1Cc2cc(CNC(=O)c3cccnc3Oc3ccc(F)cc3)ccc2N1 [Example 73, 2-(4-Fluoro-phenoxy)-N-(2-oxo-2,3-dihydro-1H-indol-5-ylmethyl)-nicotinamide] | 180 to 182

Row | Structure (SMILES) | melting point [°C]
23 | O=C(Nc1ccc2[nH]c(=O)oc2c1)c1cccnc1Oc1ccc(F)cc1 [Example 74, 2-(4-Fluoro-phenoxy)-N-(2-oxo-2,3-dihydro-benzooxazol-6-yl)-nicotinamide] | 289 to 291
24 | CCOC(=O)c1cc2cc(CNC(=O)c3cccnc3Oc3ccc(F)cc3)ccc2[nH]1 [Example 75, 5-({[2-(4-Fluoro-phenoxy)-pyridine-3-carbonyl]-amino}-methyl)-1H-indole-2-carboxylic acid ethyl ester] | 185 to 187
25 | CC(C)(C)c1cc(CNC(=O)c2cccnc2Oc2ccc(F)cc2)cc(C(C)(C)C)c1O [Example 76, N-[3,5-Di-tert-butyl-4-hydroxy-benzyl)-2-(4-fluoro-phenoxyl)nicotinamide] | 45 to 47
26 | Cc1cc(CNC(=O)c2cccnc2Oc2ccc(F)cc2)cc(C)c1O [Example 78, 2-(4-Fluoro-phenoxy)-N-(4-hydroxy-3,5-dimethyl-benzyl)-nicotinamide] | 142 to 144
27 | CC(C)(O)c1ccc(CNC(=O)c2cccnc2Oc2ccc(F)cc2)o1 [Example 79, 2-(4-Fluoro-phenoxy)-N-[5-(1-hydroxy-1-methyl-ethyl)-furan-2-ylmethyl]-nicotinamide] | 88 to 90
28 | CCC(O)(CC)c1ccc(CNC(=O)c2cccnc2Oc2ccc(F)cc2)s1 [Example 80, N-[5-(1-Ethyl-1-hydroxy-propyl)-thiophen-2-ylmethyl]-2-(4-fluoro-phenoxy)-nicotinamide] | 95 to 97
29 | CC(C)(O)c1sc(CNC(=O)c2cccnc2Oc2ccc(F)cc2)cc1Cl [Example 81, N-[4-Chloro-5-(1-hydroxy-1-methyl-ethyl]-thiophen-2-ylmethyl]-2-(4-fluoro-phenoxy)-nicotinamide] | 115 to 117
30 | CC(NC(=O)c1cccnc1Oc1ccc(F)cc1)c1ccc(Br)cc1 (centres unmarked) [Example 82, N-[1-(4-Bromo-phenyl)-ethyl]-2-(4-fluoro-phenoxy)-nicotinamide] | 120 to 122
31 | CC(C)(O)c1cc(Cl)c(CNC(=O)c2cccnc2Oc2ccc(F)cc2)s1 [Example 84, N-[3-Chloro-5-(1-hydroxy-1-methyl-ethyl)-thiophen-2-ylmethyl]-2-(4-fluoro-phenoxy)-nicotinamide] | 85 to 87
32 | O=C(NCc1ccc(C2(O)CCC2)cc1)c1cccnc1Oc1ccc(F)cc1 [Example 85, 2-(4-Fluoro-phenoxy)-N-[4-(1-hydroxy-cyclobutyl)-benzyl]-nicotinamide] | 95 to 97
33 | CC(C)(O)c1ccc(CNC(=O)c2cccnc2Oc2ccc(F)cc2)c(Cl)c1 [Example 86, N-[2-Chloro-4-(1-hydroxy-1-methyl-ethyl)-benzyl]-2-(4-fluoro-phenoxy)-nicotinamide] | 102 to 104
34 | O=C(NCc1ccc(N2CCC2)cc1)c1cccnc1Oc1ccc(F)cc1 [Example 87, N-(4-Azetidin-1-yl-benzyl)-2-(4-fluoro-phenoxy)-nicotinamide] | 128 to 129
35 | O=C(NCc1ccc(N2CC(O)C2)cc1)c1cccnc1Oc1ccc(F)cc1 [Example 88, 2-(4-Fluoro-phenoxy)-N-[4-(3-hydroxy-azetidin-1-yl)-benzyl]-nicotinamide] | 157 to 159
36 | O=C(NCc1ccc(N2CCCC2)cc1)c1cccnc1Oc1ccc(F)cc1 [Example 89, 2-(4-Fluoro-phenoxy)-N-(4-pyrrolidin-1-yl-benzyl)-nicotinamide] | 127 to 128
37 | O=C(NCc1ccc(N2CCCCC2)cc1)c1cccnc1Oc1ccc(F)cc1 [Example 90, 2-(4-Fluoro-phenoxy)-N-(4-piperidin-1-yl-benzyl)-nicotinamide] | 118 to 119
38 | O=C(NCc1ccc(N2CCOCC2)cc1)c1cccnc1Oc1ccc(F)cc1 [Example 91, 2-(4-Fluoro-phenoxy)-N-(4-morpholin-4-yl-benzyl)-nicotinamide] | 163 to 165
39 | O=C1CCN(c2ccc(CNC(=O)c3cccnc3Oc3ccc(F)cc3)cc2)CC1 [Example 92, 2-(4-Fluoro-phenoxy)-N-[4-(4-oxo-piperidin-1-yl)-benzyl]-nicotinamide] | 138 to 139
40 | CC1(c2ccc(CNC(=O)c3cccnc3Oc3ccc(F)cc3)cc2)OCCO1 [Example 94, 2-(4-Fluoro-phenoxy)-N-[4-(2-methyl-[1,3]dioxolan-2-yl)-benzyl]-nicotinamide] | 78 to 80
41 | O=C(NCc1sc(Cl)cc1Cl)c1cccnc1Oc1ccc(F)cc1 [Example 97, N-(3,5-Dichloro-thiophen-2ylmethyl)-2-(4-fluoro-phenoxy)-nicotinamide] | 132 to 134
42 | O=C(NCC1CC1)c1cccnc1Oc1cncc(Cl)c1 [Example 98, 2-(5-Chloro-pyridin-3-yloxy)-N-cyclopropylmethyl-nicotinamide] | 105 to 107
43 | CC(C)(O)c1ccc(CNC(=O)c2cccnc2Oc2ccc(F)c(C#N)c2)c(F)c1 [Example 99, 2-(3-Cyano-4-fluoro-phenoxy)-N-[2-fluoro4-(1-hydroxy-1-methyl-ethyl)-benzyl]-nicotinamide] | 157 to 159
44 | O=C(NCc1ccc(O)cc1)c1cccnc1Oc1ccc(F)cc1 [Example 103, 2-(4-Fluoro-phenoxy)-N-(4-hydroxy-benzyl)-nicotinamide] | 185 to 187
